Experimental data published in patent US8895504B2, “Amylin derivatives” (priority 2008, dated 2014).
*1 amine or outer side, *2 acyl side, *3 side chain or, on linkers, in order; H or OH if unused. Where a SMILES comes first, the peptide text is derived from it. Bridges are numbered along the chain shown (N, C = ends). The star is where a group is joined. C20 diacid = O=C(O)CCCCCCCCCCCCCCCCCCC(=O)*; γGlu = O=C(O)[C@H](CCC(=O)[*:2])N[*:1]

Molecular target: T1, Amylin 3(a) receptor (human calcitonin receptor (CTa) and RAMP-3) (Homo sapiens, UniProt O60896+P30988)
T1 construct: expressed in transfected cells; host or cells: BHK570 cells, stably transfected with a CRE-luciferase reporter
T1 sequence (O60896 24-148): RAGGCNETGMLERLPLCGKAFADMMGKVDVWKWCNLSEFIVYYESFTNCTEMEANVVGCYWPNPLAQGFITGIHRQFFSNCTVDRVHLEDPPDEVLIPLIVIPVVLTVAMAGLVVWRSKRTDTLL
T1 sequence (P30988 25-474): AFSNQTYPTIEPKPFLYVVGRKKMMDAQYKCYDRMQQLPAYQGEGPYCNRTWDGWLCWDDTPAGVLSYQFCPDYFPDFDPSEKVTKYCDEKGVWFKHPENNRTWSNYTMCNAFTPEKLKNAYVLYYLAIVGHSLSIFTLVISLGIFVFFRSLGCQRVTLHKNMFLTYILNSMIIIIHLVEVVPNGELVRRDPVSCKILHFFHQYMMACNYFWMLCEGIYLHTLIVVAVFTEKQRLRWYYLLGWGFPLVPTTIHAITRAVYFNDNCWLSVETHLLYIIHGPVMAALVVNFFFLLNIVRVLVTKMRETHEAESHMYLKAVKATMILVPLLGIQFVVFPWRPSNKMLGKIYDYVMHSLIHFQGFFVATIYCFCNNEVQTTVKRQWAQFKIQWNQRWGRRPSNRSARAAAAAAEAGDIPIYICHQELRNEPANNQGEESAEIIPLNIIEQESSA
Assay: Luciferase assay (III), BHK Amylin 3(a)//CRE-luc cells
Type: cell-based
Details: BHK cells with Amylin 3(a) receptor and CRE luciferase reporter, 4 hours incubation; read-out: Potency Luciferase
Outline: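 BHK570 cells stably expressing CTa, RAMP-3 and a CRE-luciferase reporter, seeded at about 20,000 cells/well and grown overnight. Cells were exposed to standard or sample for 4 h at 37° C in phenol red-free DMEM with 10% FBS and 10 mM Hepes, pH 7,4. Luminescence was read after 30 min LucLite at room temperature.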

| SMILES | EC50 |
| --- | --- |
| CC(C)C[C@H](NC(=O)[C@H](CCCNC(=N)N)NC(=O)[C@H](CCC(N)=O)NC(=O)[C@@H](NC(=O)[C@H](C)NC(=O)[C@@H]1CSSC[C@H](NC(=O)[C@H](CCC(=O)O)NC(=O)[C@H](CCCNC(=N)N)NC(=O)[C@H](CCC(=O)O)NC(=O)CC[C@H](NC(=O)CCCCCCCCCCCCCCCCCCC(=O)O)C(=O)O)C(=O)N[C@@H](CC(N)=O)C(=O)N[C@@H]([C@@H](C)O)C(=O)N[C@@H](C)C(=O)N[C@@H]([C@@H](C)O)C(=O)N1)[C@@H](C)O)C(=O)N[C@@H](C)C(=O)N[C@@H](CC(N)=O)C(=O)N[C@@H](Cc1ccccc1)C(=O)N[C@@H](CC(C)C)C(=O)N[C@@H](Cc1c[nH]cn1)C(=O)N[C@@H](Cc1c[nH]cn1)C(=O)N[C@@H](CO)C(=O)N[C@@H](CO)C(=O)N[C@@H](CCC(N)=O)C(=O)N[C@@H](CC(N)=O)C(=O)N[C@@H](Cc1ccccc1)C(=O)NCC(=O)N[C@@H](C)C(=O)N1CCC[C@H]1C(=O)N[C@@H](CC(C)C)C(=O)N[C@@H](CO)C(=O)N[C@@H](CO)C(=O)N[C@H](C(=O)N[C@@H](CC(N)=O)C(=O)N[C@H](C(=O)NCC(=O)N[C@@H](CO)C(=O)N[C@@H](CC(N)=O)C(=O)N[C@H](C(=O)N[C@@H](Cc1ccc(O)cc1)C(N)=O)[C@@H](C)O)C(C)C)[C@@H](C)O [Example 41, N-alpha-[(S)-4-Carboxy-4-(19-carboxynonadecanoylamino)butyryl]-Glu-Arg-[Glu1,His17,Gln21,Ala25,Pro26,Ser28,Ser29]-pramlintide] ({C20 diacid-γGlu}-ERECNTATCATQRLANFLHHSSQNFGAPLSSTNVGSNTY-NH2; disulfide 4-9) | 0.1 nM |
| CC[C@H](C)[C@H](NC(=O)[C@@H]1CCCN1C(=O)CNC(=O)[C@H](Cc1ccccc1)NC(=O)[C@H](CC(N)=O)NC(=O)[C@H](CC(N)=O)NC(=O)[C@H](CO)NC(=O)[C@H](CO)NC(=O)[C@H](Cc1c[nH]cn1)NC(=O)[C@H](Cc1c[nH]cn1)NC(=O)[C@H](CC(C)C)NC(=O)[C@H](Cc1ccccc1)NC(=O)[C@H](CC(N)=O)NC(=O)[C@H](C)NC(=O)[C@H](CC(C)C)NC(=O)[C@H](CCCNC(=N)N)NC(=O)[C@H](CCC(N)=O)NC(=O)[C@@H](NC(=O)[C@H](C)NC(=O)[C@@H]1CSSC[C@H](NC(=O)[C@H](Cc2c[nH]cn2)NC(=O)[C@H](CCCNC(=N)N)NC(=O)[C@H](Cc2c[nH]cn2)NC(=O)CC[C@H](NC(=O)CCCCCCCCCCCCCCCCCCC(=O)O)C(=O)O)C(=O)N[C@@H](CC(N)=O)C(=O)N[C@@H]([C@@H](C)O)C(=O)N[C@@H](C)C(=O)N[C@@H]([C@@H](C)O)C(=O)N1)[C@@H](C)O)C(=O)N[C@@H](CC(C)C)C(=O)N1CCC[C@H]1C(=O)N1CCC[C@H]1C(=O)N[C@H](C(=O)N[C@@H](CC(N)=O)C(=O)N[C@H](C(=O)NCC(=O)N[C@@H](CO)C(=O)N[C@@H](CC(N)=O)C(=O)N[C@H](C(=O)N[C@@H](Cc1ccc(O)cc1)C(N)=O)[C@@H](C)O)C(C)C)[C@@H](C)O [Example 72, N-alpha-[(S)-4-Carboxy-4-(19-carboxynonadecanoylamino)butyryl]-His-Arg-[His1,His17]-pramlintide] ({C20 diacid-γGlu}-HRHCNTATCATQRLANFLHHSSNNFGPILPPTNVGSNTY-NH2; disulfide 4-9) | 0.05 nM |
